Results taken from paper PMC8556396, “Statin-mediated disruption of Rho GTPase prenylation and activity inhibits respiratory syncytial virus infection” (Communications Biology, 2021).
pEC50: −log10 of the molar value. Where “and” joins values, the source holds several entries; their conditions need not be identical. Identical values can stand only once. Counter-ions that a name gives are not always drawn.

How the values were obtained:
[1] = system: prenylated proteins (small GTPases); experiment: Measurement of protein prenylation by click chemistry; assay type: cell-based; conditions: for GAPDH Normalized Intensity, Farnesylation / GAPDH Normalized Intensity, Geranylgeranylation / Raw Integrated Intensity, Farnesylation / Raw Integrated Intensity, Geranylgeranylation: + statin (atorvastatin 3.5 µM)
Procedure: HEp-2 cells were cultured in the presence of farnesyl alcohol azide (FAA) (SC-294586, Santa Cruz Biotechnology) or geranylgeranyl alcohol azide (GGAA) (C10249, Thermo Fisher Scientific) at a final concentration of 25 µM diluted in 10 mM aqueous NH4OH. Cells were infected with RSV A2 (MOI 0.5) and treated with drugs 2 h post-viral exposure. Cell lysis was performed on ice in RIPA buffer 48 h p.i., and prenylated proteins were reacted with biotin-PEG4-alkyne using the Click-iT Protein Reaction Buffer Kit (C10276, Thermo Fisher Scientific) as per the manufacturer’s protocol. Prenylated proteins in the processed samples were then visualized by western blot using a streptavidin-HRP conjugate (RPN1231, Cytiva) and Clarity ECL Substrate (1705061, Bio-Rad). Relative protein levels were quantified by densitometry in ImageJ (v1.52b).

RSV-GFP = RSV-GFP infection of HEp-2 cells, automated imaging, dose-response; assay type: cell-based, Respiratory syncytial virus; conditions: for pEC50: HEp-2, RSV-GFP MOI 0.5, treated 2 h post-viral exposure
Procedure: HEp-2 cells were seeded to black, flat, microclear-bottom 96-well plates (655096, Greiner Bio-One) at a density of 5000 cells per well and incubated at 37 °C/5% CO2 overnight. The following morning, cells were washed twice with serum-free EMEM and treated with RSV-GFP (MOI 0.5) in a minimal volume of serum-free media for 90 min under frequent agitation. Unbound virus was then removed and replaced with fresh serum-containing EMEM. All drug additions were performed 2 h post-viral exposure, unless otherwise stated. Nuclei were stained with Hoechst 33342 (H3570, Thermo Fisher Scientific) (at a final concentration of 1 µg/mL) 48 h p.i. and imaging was performed using the Cellomics ArrayScan VTI HCS Reader at ×10 magnification (SPARC BioCentre, The Hospital for Sick Children, Toronto, ON).
Automated quantification of infection rates from fluorescent images were performed in CellProfiler (v2.2.0)[86]. Major steps in the image analysis pipeline included: (1) background subtraction and smoothing, (2) segmentation of nuclei, (3) segmentation of GFP-fluorescent area, (4) object masking, and (5) measurement of nuclear number, size, and intensity. Infection rate was quantified from the ratio of nuclei within GFP-fluorescent area to the total number of nuclei (Fig. 1b). This method of analysis accounts for in vitro syncytium formation induced by RSV, whereby a single infected cell may arise from the fusion of multiple cells. Mean nuclear fluorescent intensity and size was quantified as a measure of cell viability. […]

CC(C)c1c(C(=O)Nc2ccccc2)c(-c2ccccc2)c(-c2ccc(F)cc2)n1CC[C@@H](O)C[C@@H](O)CC(=O)O [Atorvastatin, Atorvastatin calcium salt trihydrate]
GAPDH Normalized Intensity, Farnesylation ([1]; + RSV): 1.959 and 2.027
GAPDH Normalized Intensity, Geranylgeranylation ([1]; + RSV): 0.9753 and 1.167
Raw Integrated Intensity, Farnesylation ([1]; + RSV): 2027541 and 2238487
Raw Integrated Intensity, Geranylgeranylation ([1]; + RSV): 1062035 and 1238827
GAPDH Normalized Intensity, Farnesylation ([1]; - RSV): 1.992 and 1.8833
GAPDH Normalized Intensity, Geranylgeranylation ([1]; - RSV): 0.8805 and 0.8849
Raw Integrated Intensity, Geranylgeranylation ([1]; - RSV): 899910 and 921628
Raw Integrated Intensity, Farnesylation ([1]; - RSV, one value per lane): 1842503 and 1809411
effect on virus-induced small GTPase prenylation ([1]; atorvastatin 3.5 µM, 48 h p.i.): largely mitigate these virus-induced increases to small GTPase prenylation
pEC50 (RSV-GFP): 5.59
pEC50 (RSV-GFP; human respiratory syncytial virus, HEp-2, 2 h): 5.59
inhibition at 0.1 µM (RSV-GFP; human respiratory syncytial virus, HEp-2, 48 h, read-out: RSV-GFP inhibition (%), log Conc (uM) -1, replicate values): 5.55%
